Measurements reported in patent US20250213627A1, “RECOMBINANT MICROORGANISM-BASED METHODS AND COMPOSITIONS FOR TREATMENT OF DISEASE” (Baylor College of Medicine, priority 2021, published 2025).

Key:
Kv1.3 = Kv1.3 (Mus musculus, UniProt P16390); experiment: Block of Kv1.3 channel, reported potency; assay type: cell-based; settings: FIGS. 5A-5B; n=4 cells per concentration
mKv1.3 channels = biological target: T1, mKv1.3 channels (Mus musculus, UniProt P16390); experiment: Whole-cell patch-clamp block of Kv1.3 currents in L929 fibroblasts stably expressing mKv1.3; assay type: cell-based
T1 construct: expressed in transfected cells
T1 sequence (P16390 whole entry): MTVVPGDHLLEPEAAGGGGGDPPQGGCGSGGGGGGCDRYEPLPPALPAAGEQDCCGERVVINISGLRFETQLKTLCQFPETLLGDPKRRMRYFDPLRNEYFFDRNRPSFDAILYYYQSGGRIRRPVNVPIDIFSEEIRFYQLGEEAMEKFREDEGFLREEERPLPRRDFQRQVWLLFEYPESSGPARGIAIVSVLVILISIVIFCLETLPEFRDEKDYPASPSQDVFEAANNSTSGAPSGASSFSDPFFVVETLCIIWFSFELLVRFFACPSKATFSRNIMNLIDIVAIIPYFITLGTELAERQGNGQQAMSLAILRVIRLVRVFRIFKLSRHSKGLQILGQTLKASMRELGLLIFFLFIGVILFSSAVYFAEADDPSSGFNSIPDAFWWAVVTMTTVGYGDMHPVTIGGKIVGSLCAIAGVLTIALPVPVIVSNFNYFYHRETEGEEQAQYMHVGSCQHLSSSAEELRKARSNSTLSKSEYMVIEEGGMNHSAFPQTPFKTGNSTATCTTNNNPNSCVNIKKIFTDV
Description: In the absence of antibodies directed to ShK-235, the inventors used functional assays to identify and quantify ShK-235 expression and secretion into culture supernatants of LrS235. In more detail, the presence of active peptide was assayed by using whole-cell patch-clamp to test the ability of LrS235 supernatants to block Kv1.3 channels in mouse L929 fibroblasts stably expressing mKv1.3 channels. LrS235 and LrGusA were grown to mid-exponential phase and induced for expression of ShK-235 or GusA, and supernatants were processed as described in the materials and methods. […] Culture supernatant from LrS235 and LrGusA was tested for Kv1.3 channel block and the dose-response curve used to calculate the concentration of ShK-235 in supernatants.
Patch-clamp electrophysiology. To determine the concentration of ShK-235 in the LrS235 supernatants and rat sera, a dose-response of ShK-235 block of Kv1.3 was determined by adding known concentrations of the peptide to naïve rat serum and then testing by whole-cell patch-clamp of mouse L929 fibroblasts stably expressing mKv1.3 channels (45) using a PORT-A-PATCH® automated patch-clamp system (Nanion, Livingston, NJ), as described (16, 46). Culture supernatants and serum samples were then assessed with the same technique, and the dose-response curve was used to determine peptide concentration.

[1] = tested on: CIA and PIA rat models of RA; experiment: Early and late treatment of CIA and PIA by LrS235; settings: in vivo
Excerpt: Early and late treatment of CIA and PIA by LrS235. The objective of these experiments is to define the benefits of LrS235 as an oral delivery system for ShK-235 in reducing joint damage and local and systemic inflammation in rat models of RA and compare its efficacy to that of injected ShK-235 and ShK-235 delivered via an enteric-coated capsule. CIA is induced in Lewis rats by two injections at a week interval of an emulsion of porcine collagen II in incomplete Freund's adjuvant at the base of the tail^36,40,65,66. PIA is induced in DA rats by the single injection of pristane at the base of the tail. Clinical signs of CIA are observed in some aspects 3-6 days after the booster injection and clinical signs of PIA are observed in some aspects 2-3 weeks after the pristane injection. Clinical signs are scored daily based on the number of joints affected and the severity of the swelling, as in FIG. 7A. […]
Rats start receiving daily treatments either at onset of clinical signs (early treatment), or 10 days later, at peak of disease severity (late treatment). […] Rats are monitored daily for body weight and scored for clinical signs of arthritis using a standard scoring method^36,40,65,66 described in herein (FIG. 7A). […] At the end of the trials, animals are euthanized for collection of blood, hind limbs, inguinal lymph nodes, and small and large intestines, and the following is measured: […]

[2] = tested on: ShK-235 neutralizing antibodies; experiment: Antibody neutralization assay with CIA rat serum; assay type: cell-based; settings: CIA rat serum samples
Description: To test if ShK-235 produced by LrS235 is immunogenic, the sera of rats were assessed at the end of the 21-day CIA trial shown in FIG. 8 for anti-ShK-235 IgG by ELISA assay. Plates coated with collagen II and HsTX1[R14A] were used as controls. HsTX1[R14A] is another peptide blocker of Kv1.3 with no sequence or structural homology to ShK-235.
Antibody neutralization assays. […] It was then added to the PBMCs loaded with CELLTRACE™ Violet (C34557, ThermoFisher, MA, US), and T cells proliferation was assessed as described above.

human and rat TEM cells = settings: cited from earlier work
[3] = tested on: Kv1.3 versus Kv1.1 and other ion channels; experiment: Selectivity for Kv1.3 over other channels by whole-cell patch-clamp; assay type: cell-based; settings: FIG. 5E
Excerpt: FIGS. 5A-5E. […] FIG. 5A. Whole-cell Kv1.3 currents before (control) and after addition of 100 pM ShK-235. FIG. 5B. Dose-response effects of ShK-235 on Kv1.3 currents (n=4 cells per concentration). FIG. 5C. Dose-response of mKv1.3 block by synthetic ShK-235. N=3 cells per concentration. […] FIG. 5D. Representative traces of the block of mKv1.3 currents by 100 pM synthetic ShK-235. FIG. 5E. Selectivity of ShK-235 against Kv1.x channels determined by whole-cell patch-clamp.

Chain of Kv1.3 (P16390 whole entry): as above

Q: For `CC[C@H](C)[C@@H]1NC(=O)[C@H](CO)NC(=O)[C@H](Cc2c[nH]cn2)NC(=O)[C@H](CCCCN)NC(=O)[C@@H]2CSSC[C@@H]3NC(=O)[C@H]([C@@H](C)O)NC(=O)[C@H](CCCCN)NC(=O)[C@H](CCCNC(=N)N)NC(=O)[C@H](CSSC[C@H](NC(=O)[C@H](CCCNC(=N)N)NC(=O)[C@H](CO)NC(=O)[C@H](CCCCN)NC(=O)[C@@H]4CCCN4C(=O)[C@H]([C@@H](C)CC)NC(=O)[C@H]([C@@H](C)O)NC(=O)[C@H](CC(=O)O)NC(=O)[C@H]([C@@H](C)CC)NC(=O)[C@@H](NC(=O)[C@H](CO)NC(=O)[C@@H](N)CCCNC(=N)N)CSSC[C@@H](C(=O)N[C@@H](C)C(=O)O)NC(=O)[C@H]([C@@H](C)O)NC(=O)CNC3=O)C(=O)N[C@@H]([C@@H](C)O)C(=O)N[C@@H](C)C(=O)N[C@@H](Cc3ccccc3)C(=O)N[C@@H](CCCCN)C(=O)N2)NC(=O)[C@H](Cc2ccccc2)NC(=O)[C@H](CO)NC(=O)[C@H](CC(C)C)NC(=O)[C@H](CCCNC(=N)N)NC(=O)[C@H](Cc2ccc(O)cc2)NC(=O)[C@H](CCCCN)NC1=O` [ShK-235], which IC50 (Kv1.3) is on record?
A: 0.062 nM

Q: And the IC50 (mKv1.3 channels)?
A: 0.0693 ± 0.024 nM

Q: What about the “Effect on incidence and severity of CIA and PIA” value [1] of the same compound?
A: reduce the incidence

Q: What about the “Neutralization of ShK-235 by serum” value [2] of the same compound?
A: no neutralization

Q: And the “Effect on activation and function of human and rat naïve and TCM cells” value (human and rat TEM cells)?
A: little to no effect

Q: And the “Inhibition of activation of human and rat TEM cells” value (human and rat TEM cells)?
A: preferentially inhibits

Q: What about the “Selectivity for Kv1.3 over other channels” value [3] of the same compound?
A: ≥ 2,200 fold
